Laboratory results as given in US20250332162A1 (priority 2022, published 2025).
Where two headings read alike, the source gives them in different places.

Tests used:
[1] = Solubility on dilution of 10 mM DMSO stocks; type: physicochemical; conditions: 10 mM stocks in DMSO
Protocol: Antiviral compounds: Favipiravir, Mycophenolate, and Viramidine were prepared as 10 mM stocks in dimethyl sulfoxide (DMSO) and were soluble when diluted in various reaction mixtures and cell culture media. […] Also, combination of Favipiravir with each of the other drugs were tested.

[2] = tested on: Flu virus strain A/Puerto Rico/8/1934 (PR8); assay: microbe, parasite or virus in culture; type: cell-based; conditions: unidentified influenza virus, PR8, MDCK, MDCK cells
[3] = 48 h, read-out: estimated IC50 when used alone, Example A, PR8 Flu virus 0.01 MOI, 48 hours
[4] = read-out: IC50, inhibition of influenza virus cytopathic activity, drug alone, FIG. 1 experiment, influenza A/PR8 m.o.i. 0.01, pre-treated 1 h, two days
[5] = read-out: IC50, inhibition of influenza virus cytopathic activity, drug alone, FIG. 7 experiment, influenza m.o.i. 0.01, pre-treated 1 h, two days

Row | Structure (SMILES) | solubility when diluted in reaction mixtures and cell culture media [1] | IC50 [2, 3] [µM] | IC50 [2, 4] [µM] | IC50 [2, 5] [µM]
1 | NC(=O)c1nc(F)c[nH]c1=O [Favipiravir, favipiravir] | soluble | 25 | 26.5 | 25.1
2 | COc1c(C)c2c(c(O)c1C/C=C(\C)CCC(=O)O)C(=O)OC2 [Mycophenolate] | soluble | 1.42 | 1.4 | 
3 | N=C(N)c1ncn([C@@H]2O[C@H](CO)[C@@H](O)[C@H]2O)n1 [Viramidine, viramidine] | soluble | 94.7 |  | 94.7
